“And” between values parts separate entries of the source, which are not always exact repeats. Equal values may be shown once.
Legend:
[1] = Inhibition of linoleic acid lipid peroxidation (AAPH); details: 100 μM compound, 37°C
Method: 2.2.2.3 Inhibition of linoleic acid lipid peroxidation
Production of conjugated diene hydroperoxide by oxidation of linoleic acid sodium salt in an aqueous solution was monitored at 234 nm. 2,2’-Azobis(2-amidinopropane) dihydrochloride (AAPH) was used as a free radical initiator. 10 μl of the 16 mM linoleic acid sodium salt solution was added to the UV cuvette containing 0.93 ml of 0.05 M phosphate buffer, pH 7.4 prethermostated at 37°C. The oxidation reaction was initiated at 37°C under air by the addition of 50 μl of 40 mM AAPH solution. Oxidation was carried out in the presence of 10 μl of the examined compounds (stock solution in DMSO). In the assay without antioxidant, lipid oxidation was measured in the presence of the same level of DMSO. The rate of oxidation at 37°C was monitored by recording the increase in absorption at 234 nm caused by conjugated diene hydroperoxides (Table 5). Trolox was used as a standard.
Anti-lipid peroxidation activity. The water-soluble azo compound AAPH has been extensively used as a clean and controllable source of thermally produced alkyl peroxyl free radicals, through spontaneous thermal decomposition. […] In the AAPH assay, the highly reactive alkylperoxyl radicals are intercepted mainly by a hydrogen atom transfer (HAT) from the antioxidant.

[2] = target: T1, soybean lipoxygenase (Glycine max, UniProt P08170); experiment: Soybean lipoxygenase inhibition in vitro; format: biochemical; details: for inhibition at 100 µM: read-out: %LOX @ 100μΜ; for %LOX @ 100μΜ: 100 μM compound; for IC50: read-out: LOX IC50 μΜ
T1 construct: purchased Sigma Chemical, Co. (St. Louis, MO, USA)
T1 sequence (P08170 1-839): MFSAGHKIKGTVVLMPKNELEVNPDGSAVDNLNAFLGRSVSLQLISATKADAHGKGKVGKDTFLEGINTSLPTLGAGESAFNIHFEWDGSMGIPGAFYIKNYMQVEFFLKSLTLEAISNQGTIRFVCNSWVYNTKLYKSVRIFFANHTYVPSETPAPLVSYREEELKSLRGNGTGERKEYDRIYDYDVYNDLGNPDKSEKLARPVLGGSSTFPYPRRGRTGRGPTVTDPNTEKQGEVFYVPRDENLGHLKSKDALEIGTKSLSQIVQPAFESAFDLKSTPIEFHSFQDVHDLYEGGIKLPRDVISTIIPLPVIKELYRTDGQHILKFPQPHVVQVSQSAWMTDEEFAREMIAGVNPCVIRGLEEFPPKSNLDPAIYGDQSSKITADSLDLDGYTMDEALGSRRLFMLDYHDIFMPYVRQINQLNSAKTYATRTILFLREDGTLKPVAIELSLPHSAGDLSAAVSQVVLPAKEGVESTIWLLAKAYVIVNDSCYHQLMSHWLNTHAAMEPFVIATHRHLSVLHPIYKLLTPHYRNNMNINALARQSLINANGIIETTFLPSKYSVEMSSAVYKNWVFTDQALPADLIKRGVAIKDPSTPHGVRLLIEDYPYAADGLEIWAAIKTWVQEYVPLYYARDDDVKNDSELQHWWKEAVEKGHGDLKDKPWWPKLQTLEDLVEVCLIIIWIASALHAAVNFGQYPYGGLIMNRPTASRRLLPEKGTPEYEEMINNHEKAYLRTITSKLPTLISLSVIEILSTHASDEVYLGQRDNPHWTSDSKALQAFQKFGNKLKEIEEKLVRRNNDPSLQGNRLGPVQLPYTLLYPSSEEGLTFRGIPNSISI
Method: 2.2.2.4 Soybean lipoxygenase inhibition study in vitro [14]
In vitro study was evaluated as reported previously. The tested compounds dissolved in ethanol were incubated at room temperature with sodium linoleate (0.1 mM) and 0.2 ml of enzyme solution (1/9 x10^-4 w/v in saline). […] Several concentrations were used for the determination of IC50 values (Table 5).
LO is the key enzyme in leukotriene biosynthesis. Leukotrienes derived from the biotransformation of arachidonic acid catalyzed by 5-lipoxygenase (5-LO), are important inflammatory mediators implicated in several diseases. LOs play a role in membrane lipid peroxidation by forming hydroperoxides in the lipid bilayer. […] Most of the LO inhibitors are antioxidants or free radical scavengers, since lipoxygenation occurs via a carbon-centered radical. The evaluation of the novel coumarin hybrids against soybean lipoxygenase LO was accomplished by the UV-based enzyme assay.

[3] = Reducing activity of the stable radical DPPH; details: 100 μM compound, after 20 min
Method: 2.2.2.1 Determination of the reducing activity of the stable radical 1, 1-diphenyl-picrylhydrazyl (DPPH)
To a solution of DPPH (100μM) in absolute ethanol an equal volume of the compounds dissolved in ethanol was added. As control solution ethanol was used. The concentration of the solutions of the compounds was 100μM. After 20 and 60 min at room temperature the absorbance was recorded at 517 nm (Table 5). NDGA was used as a standard.
The compounds were studied for their antioxidant activity by the use of the stable 2,2-diphenyl-1-picrylhydrazyl radical (DPPH) at concentration 0.1mM after 20 min. […] This purple colour generally disappears in the presence of an antioxidant. The reduction of absorbance is a measure of the free DPPH due to the action of the antioxidant. The antioxidant activity was expressed as the RA% (Reducing Activity). […] Within the group of derivatives 4 the presence of the morpholinyl or piperidinyl rings at position A as well as the carbonyl group at position B, hinder the interaction of the compounds to the free stable radical DPPH.

[4] = Competition of the tested compounds with DMSO for hydroxyl radicals; details: 100 μM compound, Fe3+/ascorbic acid, 30 min, 37°C
Method: 2.2.2.2 Competition of the tested compounds with DMSO for hydroxyl radicals
The hydroxyl radicals generated by the Fe ^3+ /ascorbic acid system, were detected according to Nash, by the determination of formaldehyde produced from the oxidation of DMSO. The reaction mixture contained EDTA (0.1 mM), Fe ^3+ (167 μM), DMSO (33 mM) in phosphate buffer (50 mM, pH 7.4), the tested compounds (concentration 0.1mM) and ascorbic acid (10 mM). After 30 min of incubation (37°C) the reaction was stopped with CCl3COOH (17% w/v) (Table 5). Trolox was used as a standard.
Superoxide (O2^-.) anion and hydroxyl radical (^.OH) are free radical species of potential importance. In the acidic conditions of ischemic brain, O2^-. is probably protonated to give HO2^-. species. Iron released from damaged brain cells is more likely to be readily available to catalyze the generation of OH radicals. Among the ROS, the hydroxyl (^•OH) free radical is possibly the most toxic, as it reacts with a number of biological important molecules. Polyunsaturated fatty acids are found in high concentrations in the CNS, and are particularly vulnerable by free radicals. Thus, we tried to test the ability of our compounds to scavenge hydroxyl radicals. […] All the derivatives of series 13 (except of 13i) present high antioxidant activity (80-100%) which is not able to be correlated with any specific structural characteristic since all contain a coumarin, a purine and an isoxazolyl moiery. […] It seems that the overall molar configuration influences the response. However, antioxidants with hydrophilic or lipophilic character are both needed to act as radical scavengers in the aqueous phase or as chain-breaking antioxidants in biological membranes.

SMILES	melting point [°C]	LP % @ 100μΜ (inhibition of lipid peroxidation) [1]	inhibition at 100 µM [2] [%]	RA% @ 100μΜ (reducing activity, DPPH) [3]	∙ΟΗ % @ 100μΜ (hydroxyl radical scavenging, percent inhibition of formaldehyde production) ([4]; 100 µM)	%LOX @ 100μΜ [2]	IC50 [2]	∙ΟΗ % @ 100μΜ (hydroxyl radical scavenging, percent inhibition of formaldehyde production) [4] [%]
Cc1cc(=O)oc2cc(OCc3cc(Cn4cnc5c(N6CCCCC6)ncnc54)no3)ccc12	165 to 167	–	–	–	–	–	–	–
O=c1ccc2ccc(OCC3=NOC(n4cnc5c(N6CCCC6)ncnc54)C3)cc2o1 (stereo not shown)	200 to 202	–	–	–	–	–	–	–
Cc1cc(=O)oc2ccc(OC(=O)C3CC(Cn4cnc5c(N6CCCC6)ncnc54)=NO3)cc12 (stereo not shown)	192 to 193	–	–	–	–	–	–	–
Cc1cc(=O)oc2ccc(OCC3CC(Cn4cnc5c(N6CCCCC6)ncnc54)=NO3)cc12 (stereo not shown) [4a, 4-methyl-6-({3-[(6-piperidin-1-yl-9H-purin-9-yl)methyl]-4,5-dihydroisoxazol-5-yl}methoxy)-2H-chromen-2-one]	180 to 182	63%	6	–	–	–	–	–
Cc1cc(=O)oc2cc(OCC3CC(Cn4cnc5c(N6CCCCC6)ncnc54)=NO3)ccc12 (stereo not shown) [4c]	186 to 187	65%	–	17%	did not present any activity and no	no	–	–
Cc1cc(=O)oc2cc(OCC3CC(Cn4cnc5c(N6CCOCC6)ncnc54)=NO3)ccc12 (stereo not shown) [4d]	194 to 196	21%	44.5	–	–	–	–	–
Cc1cc(=O)oc2cc(OCC3CC(Cn4cnc5c(N6CCCC6)ncnc54)=NO3)ccc12 (stereo not shown) [4e]	190 to 192	65%	–	–	–	no	–	–
O=c1cc(OCC2CC(Cn3cnc4c(N5CCOCC5)ncnc43)=NO2)c2ccccc2o1 (stereo not shown) [4g]	158 to 160	16%	10	–	–	10%	–	–
Cc1cc(=O)oc2cc(OCCC3CC(Cn4cnc5c(N6CCCC6)ncnc54)=NO3)ccc12 (stereo not shown) [4j]	178 to 180	32%	37	44%	did not present any activity and no	–	–	–
Cc1cc(=O)oc2ccc(OC(=O)C3CC(Cn4cnc5c(N6CCCCC6)ncnc54)=NO3)cc12 (stereo not shown) [4k, 4-Methyl-2-oxo-2H-chromen-6-yl 3-[(6-piperidin-1-yl-9H-purin-9-yl)methyl]-4,5-Dihydroisoxazole-5-Carboxylate]	179 to 181	57%	–	12%	–	–	10 µM	–
Cc1cc(=O)oc2ccc(OC(=O)C3CC(Cn4cnc5c(N6CCOCC6)ncnc54)=NO3)cc12 (stereo not shown) [4l]	188 to 189	37.5%	–	12%	–	–	61 µM	–
Cc1cc(=O)oc2ccc(OCC3=NOC(Cn4cnc5c(N6CCCCC6)ncnc54)C3)cc12 (stereo not shown) [11a, 4-methyl-6-({5-[(6-piperidin-1-yl-9H-purin-9-yl)methyl]-4,5-dihydroisoxazol-3-yl}methoxy)-2H-chromen-2-one]	148 to 150	44%	–	–	–	no	–	–
O=c1ccc2ccc(OCC3=NOC(Cn4cnc5c(N6CCCCC6)ncnc54)C3)cc2o1 (stereo not shown) [11g]	184 to 185	no	–	–	–	no	–	–
Cc1cc(=O)oc2cc(OCc3cc(Cn4cnc5c(N6CCOCC6)ncnc54)no3)ccc12 [13d]	179 to 180	no	–	no	–	no	–	–
O=c1ccc2ccc(OCc3cc(Cn4cnc5c(N6CCOCC6)ncnc54)no3)cc2o1 [13f]	174 to 175	23%	25	no	–	–	–	–
O=c1ccc2ccc(OCc3cc(Cn4cnc5c(N6CCCC6)ncnc54)no3)cc2o1 [13g]	176 to 178	43%	–	no	–	–	62.5 µM and 62 µM	–
O=c1cc(OCc2cc(Cn3cnc4c(N5CCCCC5)ncnc43)no2)c2ccccc2o1 [13h]	161 to 163	86%	–	no	–	–	55 µM	–
O=c1ccc2ccc(OCc3cc(Cn4cnc5c(N6CCCCC6)ncnc54)on3)cc2o1 [15a, 7-({5-[(6-piperidin-1-yl-9H-purin-9-yl)methyl]isoxazol-3-yl}methoxy)-2H-chromen-2-one]	140 to 142	–	–	no	–	–	55 µM	–
O=c1ccc2ccc(OCc3cc(Cn4cnc5c(N6CCCC6)ncnc54)on3)cc2o1 [15c]	172 to 173	43%	9	no	–	9%	–	–
CC(Cc1ccc(O)c(O)c1)C(C)Cc1ccc(O)c(O)c1 (stereo not shown) [NDGA, nordihydroguairetic acid, reference compound]	–	–	–	87%	–	–	–	–
Cc1c(C)c2c(c(C)c1O)CCC(C)(C(=O)O)O2 (stereo not shown) [Trolox, reference compound]	–	76%	–	–	–	–	–	83
